Converted amounts (≈) assume the structure as drawn.
Test system: multidrug resistant Staphylococcus aureus Mu3
Assay: MIC by CLSI broth micro-dilution, MRSA Mu3
Type: cell-based
Conditions: MRSA, CLSI broth micro-dilution, CAMH, read-out: Minimum inhibitory concentration (μM) in MRSA Mu3
Protocol: Aminoxy acids were synthesized by the standard peptide coupling procedures. Minimum inhibitory concentration was determined using CLSI broth micro-dilution method in 96-wells microtitre plates. Minimum inhibitory concentration is defined as the lowest concentration of the compound that inhibits visible growth of the bacteria. All experiments were performed three times. 24 compounds including aminoxy acid monomers and dipeptides have been identified to show toxicity against multidrug resistant Staphylococcus aureus Mu3 and summarized in Table 1. The minimum inhibitory concentration of compound 8 and compound 35 on other gram-positive bacteria was also evaluated and summarized in Table 2. […] As shown in FIGS. 3A-3B there are no observable hemolysis for compound 8 and compound 35 towards human red blood cell.
Bacteria were streaked from the glycerol stock into BHI agar and were incubated overnight. Single colony was picked for the overnight culture in cation-adjusted Mueller Hinton broth (CAMH), LB or BHI. The overnight culture was sub-cultured and regrew to exponential phase for the experiment.
MIC was determined by CLSI broth micro-dilution method in 96-wells microtitre plates. For compounds dissolved in water, 100 μL of 2× testing concentration was added to the first well of each column, followed by two-fold serial dilution for successive wells with 50 μL medium. For chemical compounds dissolved in DMSO, the compounds were two-fold serial diluted by DMSO in a DMSO-compatible 96-well plate. 1 μL of compound in DMSO was transferred into 96-wells microtitre plate containing 50 μL medium to give 2× testing concentration. An overnight culture of bacteria was grown into exponential phase. The bacteria culture was diluted to 1×10^6 CFU/mL and 50 μL of diluted culture were added into each well. The test plates were kept in a 37° C. incubator overnight. Optical density was recorded by DTX 880 multimode detector (Beckman Coulter, California, US). MIC is defined as the lowest concentration of the compound that inhibits visible growth of bacteria. Biological replicates were performed. CAMH was used for bacteria culture and MIC test except S. pneumoniae, L. monocytogenes, E. faecalis and M. smegmatis for which BHI was used as culture medium

`CC(C)C[C@H](ONC(=O)[C@@H](COCc1ccccc1)ONC(=O)c1cc(C(F)(F)F)cc(C(F)(F)F)c1)C(=O)Nc1ccc2ccccc2c1` [Compound 39] was tested, and the MIC was 1.56 µM (≈ 1.1 µg/mL).
`CC(C)C[C@H](ONC(=O)[C@H](COCc1ccccc1)ONC(=O)c1cc(C(F)(F)F)cc(C(F)(F)F)c1)C(=O)Nc1ccccc1` [Compound 6] gave an MIC of 3.13 µM (≈ 2.05 µg/mL).
Molecule `CC(C)C[C@H](ONC(=O)[C@@H](COCc1ccccc1)ONC(=O)c1cc(C(F)(F)F)cc(C(F)(F)F)c1)C(=O)Nc1ccc(C(F)(F)F)cc1` [Compound 38] has an MIC of 1.56 µM (≈ 1.13 µg/mL).
Work on `Cc1noc(C)c1C(=O)NO[C@H](COCc1ccccc1)C(=O)NO[C@@H](CC(C)C)C(=O)Nc1ccc2c(c1)OC(F)(F)O2` [Compound 50] yielded an MIC greater than 12.5 µM.
Work on `CC(C)(C)OC(=O)NCCCC[C@@H](ONC(=O)[C@@H](COCc1ccccc1)ONC(=O)c1cc(C(F)(F)F)cc(C(F)(F)F)c1)C(=O)Nc1ccccc1` [Compound 19] yielded an MIC of 12.5 µM (≈ 9.63 µg/mL).
For `CC(C)C[C@H](ONC(=O)[C@@H](COCc1ccccc1)ONC(=O)c1cc(C(F)(F)F)cc(C(F)(F)F)c1)C(=O)Nc1ccc(F)cc1` [Compound 36], the MIC was 3.13 µM (≈ 2.11 µg/mL).
`C[C@@H](ONC(=O)[C@@H](COCc1ccccc1)ONC(=O)c1cc(C(F)(F)F)cc(C(F)(F)F)c1)C(=O)Nc1ccccc1` [Compound 17] was tested, and the MIC was greater than 12.5 µM.
For `O=C(NO[C@H](COCc1ccccc1)C(=O)NO[C@H](COCc1ccccc1)C(=O)Nc1ccccc1)c1cc(C(F)(F)F)cc(C(F)(F)F)c1` [Compound 12], the MIC was 3.13 µM (≈ 2.25 µg/mL).
`CC(C)C[C@H](ONC(=O)[C@@H](COCc1ccccc1)ONC(=O)c1cc(C(F)(F)F)cc(C(F)(F)F)c1)C(=O)NOc1ccccc1` [Compound 41] gave an MIC greater than 12.5 µM.
For `CC(C)(C)OC[C@@H](ONC(=O)[C@@H](COCc1ccccc1)ONC(=O)c1cc(C(F)(F)F)cc(C(F)(F)F)c1)C(=O)Nc1ccccc1` [Compound 13], the MIC was 6.25 µM (≈ 4.29 µg/mL).
Work on `COc1ccc(NC(=O)[C@H](CC(C)C)ONC(=O)[C@@H](COCc2ccccc2)ONC(=O)c2cc(C(F)(F)F)cc(C(F)(F)F)c2)cc1` [Compound 29] yielded an MIC of 6.25 µM (≈ 4.29 µg/mL).
`CC(C)C[C@@H](ONC(=O)c1cc(C(F)(F)F)cc(C(F)(F)F)c1)C(=O)Nc1ccccc1` [Compound 3] gave an MIC of 3.13 µM (≈ 1.45 µg/mL).
In the case of `CC(C)(C)OC(=O)[C@@H](COCc1ccccc1)ONC(=O)c1cc(C(F)(F)F)cc(C(F)(F)F)c1` [Compound 1], the MIC is reported as 12.5 µM (≈ 6.34 µg/mL).
In the case of `O=C(NO[C@H](COCc1ccccc1)C(=O)NO[C@@H](Cc1ccccc1)C(=O)Nc1ccccc1)c1cc(C(F)(F)F)cc(C(F)(F)F)c1` [Compound 11], the MIC is reported as 3.13 µM (≈ 2.16 µg/mL).
With `CC(C)C[C@H](NC(=O)[C@@H](COCc1ccccc1)ONC(=O)c1cc(C(F)(F)F)cc(C(F)(F)F)c1)C(=O)Nc1ccccc1` [Compound 56] the MIC was 6.25 µM (≈ 4 µg/mL).
`NCCCC[C@@H](ONC(=O)[C@@H](COCc1ccccc1)ONC(=O)c1cc(C(F)(F)F)cc(C(F)(F)F)c1)C(=O)Nc1ccccc1` [Compound 20] showed an MIC greater than 12.5 µM.
`O=C(O)C[C@@H](ONC(=O)[C@@H](COCc1ccccc1)ONC(=O)c1cc(C(F)(F)F)cc(C(F)(F)F)c1)C(=O)Nc1ccccc1` [Compound 18] was tested, and the MIC was greater than 12.5 µM.
With `CC(C)C[C@H](ONC(=O)[C@@H](COCc1ccccc1)ONC(=O)c1cc(C(F)(F)F)cc(C(F)(F)F)c1)C(=O)Nc1cccc2cc[nH]c12` [Compound 25] the MIC was 6.25 µM (≈ 4.34 µg/mL).
In the case of `CC(C)C[C@H](ONC(=O)[C@@H](COCc1ccccc1)ONC(=O)c1ccc2c(c1)OC(F)(F)O2)C(=O)Nc1ccc2c(c1)OC(F)(F)O2` [Compound 52], the MIC is reported as 3.13 µM (≈ 2.13 µg/mL).
Work on `CC(C)C[C@H](ONC(=O)[C@@H](COCc1ccccc1)ONC(=O)c1cc(C(F)(F)F)cc(C(F)(F)F)c1)C(=O)Nc1cncnc1` [Compound 27] yielded an MIC greater than 12.5 µM.
With `CC(C)C[C@H](ONC(=O)[C@@H](COCc1ccccc1)ONC(=O)c1cccc2cccnc12)C(=O)Nc1ccc2c(c1)OC(F)(F)O2` [Compound 49] the MIC was greater than 12.5 µM.
`CC(C)C[C@H](ONC(=O)[C@@H](COCc1ccccc1)ONC(=O)C(C)(C)C)C(=O)Nc1ccc2c(c1)OC(F)(F)O2` [Compound 42] was tested, and the MIC was greater than 12.5 µM.
For `CC(C)C[C@H](ONC(=O)[C@@H](COCc1ccccc1)ONC(=O)c1cc(C(F)(F)F)cc(C(F)(F)F)c1)C(=O)NC12CC3CC(CC(C3)C1)C2` [Compound 26], the MIC was 6.25 µM (≈ 4.46 µg/mL).
Molecule `CC(C)C[C@H](ONC(=O)[C@@H](COCc1ccccc1)ONC(=O)C12CC3CC(CC(C3)C1)C2)C(=O)Nc1ccc2c(c1)OC(F)(F)O2` [Compound 43] has an MIC greater than 12.5 µM.
Molecule `CC(C)C[C@H](ONC(=O)[C@@H](COCc1ccccc1)ONC(=O)c1cc(C(F)(F)F)cc(C(F)(F)F)c1)C(=O)N1CCOCC1` [Compound 32] has an MIC greater than 12.5 µM.
With `CC(C)C[C@H](ONC(=O)[C@@H](COCc1ccccc1)ONC(=O)c1c(F)cccc1F)C(=O)Nc1ccc2c(c1)OC(F)(F)O2` [Compound 48] the MIC was greater than 12.5 µM.
With `CC(C)C[C@H](ONC(=O)[C@@H](COCc1ccccc1)ONC(=O)c1ccc2ccccc2c1)C(=O)Nc1ccc2c(c1)OC(F)(F)O2` [Compound 46] the MIC was greater than 12.5 µM.
`CC(C)CNC(=O)[C@H](CC(C)C)ONC(=O)[C@@H](COCc1ccccc1)ONC(=O)c1cc(C(F)(F)F)cc(C(F)(F)F)c1` [Compound 24] was tested, and the MIC was greater than 12.5 µM.
With `CC(C)C[C@@H](ONC(=O)[C@@H](COCc1ccccc1)ONC(=O)c1cc(C(F)(F)F)cc(C(F)(F)F)c1)C(=O)Nc1ccccc1` [Compound 9] the MIC was 3.13 µM (≈ 2.05 µg/mL).
`O=C(NO[C@H](COCc1ccccc1)C(=O)NO[C@H](CO)C(=O)Nc1ccccc1)c1cc(C(F)(F)F)cc(C(F)(F)F)c1` [Compound 15] showed an MIC greater than 12.5 µM.
Molecule `O=C(NO[C@H](COCc1ccccc1)C(=O)Nc1ccccc1)c1cc(C(F)(F)F)cc(C(F)(F)F)c1` [Compound 2] has an MIC of 6.25 µM (≈ 3.29 µg/mL).
`CC(C)C[C@@H](ONC(=O)[C@H](COCc1ccccc1)ONC(=O)c1cc(C(F)(F)F)cc(C(F)(F)F)c1)C(=O)Nc1ccccc1` [Compound 7] gave an MIC of 3.13 µM (≈ 2.05 µg/mL).
`CC(C)C[C@H](ONC(=O)[C@@H](COCc1ccccc1)ONC(=O)c1cc(C(F)(F)F)cc(C(F)(F)F)c1)C(=O)OC(C)(C)C` [Compound 5] showed an MIC greater than 12.5 µM.
In the case of `CC(C)(C)OC(=O)C[C@@H](ONC(=O)[C@@H](COCc1ccccc1)ONC(=O)c1cc(C(F)(F)F)cc(C(F)(F)F)c1)C(=O)Nc1ccccc1` [Compound 14], the MIC is reported as 3.13 µM (≈ 2.23 µg/mL).
`CC(C)C[C@H](ONC(=O)[C@@H](COCc1ccccc1)ONC(=O)c1cc(C(F)(F)F)cc(C(F)(F)F)c1)C(=O)NC1CCCCC1` [Compound 22] was tested, and the MIC was greater than 12.5 µM.
`CC(C)C[C@H](ONC(=O)[C@@H](COCc1ccccc1)ONC(=O)c1cc(C(F)(F)F)cc(C(F)(F)F)c1)C(=O)NC1CC1` [Compound 28] showed an MIC greater than 12.5 µM.
`O=C(CONC(=O)[C@@H](COCc1ccccc1)ONC(=O)c1cc(C(F)(F)F)cc(C(F)(F)F)c1)Nc1ccccc1` [Compound 16] showed an MIC greater than 12.5 µM.
`CC(C)C[C@H](ONC(=O)[C@@H](COCc1ccccc1)ONC(=O)c1ccc(F)cc1)C(=O)Nc1ccc2c(c1)OC(F)(F)O2` [Compound 47] gave an MIC greater than 12.5 µM.
Work on `CC(C)C[C@H](ONC(=O)[C@@H](COCc1ccccc1)ONC(=O)c1ccccc1)C(=O)Nc1ccc2c(c1)OC(F)(F)O2` [Compound 44] yielded an MIC greater than 12.5 µM.
With `CC(C)C[C@H](ONC(=O)[C@@H](COCc1ccccc1)ONC(=O)c1ccc[nH]1)C(=O)Nc1ccc2c(c1)OC(F)(F)O2` [Compound 51] the MIC was greater than 12.5 µM.
In the case of `CC(C)C[C@H](ONC(=O)[C@@H](COCc1ccccc1)ONC(=O)c1cc(C(F)(F)F)cc(C(F)(F)F)c1)C(=O)Nc1ccc(N2CCOCC2)cc1` [Compound 33], the MIC is reported as greater than 12.5 µM.
`CC(C)(C)OC(=O)[C@@H](COCc1ccccc1)ONC(=O)[C@@H](COCc1ccccc1)ONC(=O)c1cc(C(F)(F)F)cc(C(F)(F)F)c1` [Compound 4] was tested, and the MIC was greater than 12.5 µM.
For `CC(C)C[C@H](ONC(=O)[C@@H](COCc1ccccc1)ONC(=O)c1cc(C(F)(F)F)cc(C(F)(F)F)c1)C(=O)Nc1ccc2cc[nH]c2c1` [Compound 23], the MIC was greater than 12.5 µM.
`CC(C)C[C@H](ONC(=O)[C@@H](COCc1ccccc1)NC(=O)c1cc(C(F)(F)F)cc(C(F)(F)F)c1)C(=O)Nc1ccccc1` [Compound 57] was tested, and the MIC was greater than 12.5 µM.
Molecule `Cc1cc(C)cc(C(=O)NO[C@H](COCc2ccccc2)C(=O)NO[C@@H](CC(C)C)C(=O)Nc2ccc3c(c2)OC(F)(F)O3)c1` [Compound 45] has an MIC greater than 12.5 µM.
For `CC(C)C[C@H](ONC(=O)[C@@H](COCc1ccccc1)ONC(=O)c1cc(C(F)(F)F)cc(C(F)(F)F)c1)C(=O)Nc1ccc(C#N)cc1` [Compound 37], the MIC was 6.25 µM (≈ 4.25 µg/mL).
`Cc1cc(C)cc(NC(=O)[C@H](CC(C)C)ONC(=O)[C@@H](COCc2ccccc2)ONC(=O)c2cc(C(F)(F)F)cc(C(F)(F)F)c2)c1` [Compound 31] showed an MIC of 3.13 µM (≈ 2.14 µg/mL).
In the case of `CC(C)C[C@H](ONC(=O)[C@@H](COCc1ccccc1)ONC(=O)c1cc(C(F)(F)F)cc(C(F)(F)F)c1)C(=O)Nc1nccs1` [Compound 21], the MIC is reported as greater than 12.5 µM.
`CC(C)C[C@H](ONC(=O)[C@@H](COCc1ccccc1)ONS(=O)(=O)c1ccc(C(F)(F)F)cc1)C(=O)Nc1ccc2c(c1)OC(F)(F)O2` [Compound 54] showed an MIC greater than 12.5 µM.
Molecule `CC(C)C[C@H](ONC(=O)[C@@H](COCc1ccccc1)ONC(=O)c1cc(C(F)(F)F)cc(C(F)(F)F)c1)C(=O)Nc1ccc2c(c1)OCO2` [Compound 34] has an MIC of 6.25 µM (≈ 4.37 µg/mL).

Reference: US20240315992A1, “AMINOXY ACID-BASED ANTIBACTERIAL COMPOUNDS AND METHODS THEREOF” (The University of Hong Kong, priority 2023, published 2024)
